Legend:
[1] = tested on: normal human keratinocytes; test: Menadione-induced ROS production in keratinocytes; type: cell-based; settings: 10 mM, 24 h, Menadione 50 μM
Description: (§1) Normal human keratinocytes, on the one hand, and normal human fibroblasts, on the other, were treated for 24 hours with the 0.001% and 0.005% dry matter (dm) holy basil extract obtained according to Example 1 or with 10 mM N-Acetyl Cysteine (NAC), a ROS scavenger molecule used as an antioxidant reference. […] ROS were labeled with the CellRox® probe; intracellular fluorescence, proportional to the amount of ROS, was measured. Results were statistically analyzed using a one-factor ANOVA, followed by a Dunnett's test.

normal human fibroblasts [2] = test: Menadione-induced ROS production in fibroblasts; type: cell-based; settings: 10 mM, 24 h, Menadione 200 μM
Description: as §1

normal human fibroblasts [3] = test: Glutathione (GSH) content in fibroblasts under menadione stress; type: cell-based; settings: 10 mM, 24 h; Menadione 25 μM 4 h
Description: Normal human fibroblasts were treated for 24 hours with 0.001% and 0.005% dm holy basil extract obtained according to Example 1 or with the antioxidant reference, 10 mM NAC. Oxidative stress was then induced by 4-hour incubation in the presence of 25 μM menadione. GSH stock was monitored using the fluorescent probe Monochlorobimane (Mbi); intracellular fluorescence, proportional to the amount of GSH, was measured.

[4] = tested on: normal human epidermal keratinocytes; test: γH2AX expression (DNA double-strand breaks) in keratinocytes under camptothecin stress; type: cell-based; settings: reference, 24 h pre-incubation; camptothecin 1 h
Description: Normal human epidermal keratinocytes were pre-incubated for 24 hours in the presence of the holy basil extract obtained in Example 1 at 0.001% and 0.005% dm or the reference nicotinamide, prior to 1-hour exposure to camptothecin. Camptothecin is a genotoxic compound, a toposiomerase I inhibitor, used for the induction of DNA double-strand breaks. Double-strand breaks were detected by immunostaining of γH2AX (phosphorylation of histone H2AX which intervenes early in response to double-strand breaks) and quantified by image analysis. Results were statistically analyzed using an ANOVA followed by a Tukey test.

[5] = tested on: normal human keratinocytes; test: H2O2-induced ROS production in normal human keratinocytes; type: cell-based; settings: 24 h, H2O2 100 μM 20 min
Description: Quercetin at 10 μM or Vitamin C at 500 μM, before incorporation of the H2DCF-DA probe. Keratinocytes were then stimulated with 100 μM hydrogen peroxide (H2O2) for 20 minutes. ROS production was assessed by measuring the fluorescence emitted by the probe on contact with ROS. Results were statistically analyzed using a one-way ANOVA followed by a Tukey test.

[6] = tested on: normal human epidermal keratinocytes; test: Aquaporin-3 production in keratinocytes (immunostaining); type: cell-based; settings: reference, 24 h
Description: Normal human epidermal keratinocytes were incubated for 24 hours in the presence of the holy basil extract obtained in Example 1 at 0.001% and 0.005% dm or retinoic acid, positive reference. Aquaporin-3 expression was assessed by immunostaining and quantified by image analysis.

reconstructed epidermis = test: IL1α produced by PMA-stimulated reconstructed epidermis; type: cell-based, human; settings: systemic, 24 h pre-incubation, PMA 0.5 μg/ml 24 h
Description: […] After 24 hours pre-incubation, the epidermis was stimulated with 0.5 μg/mL PMA and incubated again for 24 hours.
Culture supernatants were collected, an IL1α assay was performed on the one hand and, on the other, these supernatants (conditioned media) were plated onto cultures of normal human dermal fibroblasts.
Results were statistically analyzed using an ANOVA followed by a Tukey test.

[7] = tested on: normal human keratinocytes; test: IL8 produced by keratinocytes under PMA-induced inflammatory stress (ELISA); type: cell-based; settings: 24 h pre-incubation, PMA 10 μg/ml 24 h
Description: Normal human keratinocytes were pre-incubated for 24 hours in the presence of holy basil extract obtained according to Example 1 at 0.001%, 0.005% or 0.01% dm or dexamethasone at 0.1 μM, an anti-inflammatory reference. The cells were then stimulated by 24-hour treatment in the presence of 10 μg/mL PMA (Phorbol-Myristate-Acetate).
At the end of treatment, the IL8 produced was quantified by ELISA assay in the culture supernatants.
Results were analyzed statistically using the Student t-test.

[8] = tested on: normal human dermal fibroblasts; test: Gene expression of dermal matrix markers in fibroblasts (qPCR); type: cell-based; settings: 5 ng/ml, 48 h
Description: Normal human dermal fibroblasts were incubated for 48 hours in the presence of holy basil extract obtained according to Example 1 at 0.001% and 0.005% dm or TGFβ1 at 5 ng/ml, the positive assay reference.
Gene expression of Collagen I, Elastin, Dermatopontin and MMP1 (Matrix-Metalloproteinase-1) was assessed by real-time quantitative PCR.
Results were statistically analyzed using a one-factor analysis of variance (ANOVA), followed by a Dunnett's post-test.

[9] = tested on: normal human keratinocytes; test: Lipid peroxidation in keratinocytes under cumene hydroperoxide stress; type: cell-based; settings: 200 μM, 24 h, Cumene 200 μM
Description: (§2) Normal human keratinocytes, on the one hand, and normal human fibroblasts, on the other, were treated for 24 hours with the 0.001% and 0.005% dm holy basil extract obtained according to example 1 or with the antioxidant reference, vitamin E at 200 μM. Oxidative stress was then induced by incubation for 1 hour in the presence of cumene hydroperoxide at 200 or 50 μM.
(§3) Results were statistically analyzed using a one-way ANOVA followed by a Tukey test.

normal human fibroblasts [10] = test: Lipid peroxidation in fibroblasts under cumene hydroperoxide stress; type: cell-based; settings: 200 μM, 24 h, Cumene 50 μM
Description: as §2, §3

## CC(=O)N[C@@H](CS)C(=O)O [NAC, N-Acetyl Cysteine]
[1]
  ROS (Arbitrary units): 2490 ± 94.3 Arbitrary units
[1]; Homo sapiens, Keratinocyte
  inhibition at 10000 µM: 100%
Normal human fibroblasts [2]
  ROS (Arbitrary units): 3114 ± 14.2 Arbitrary units
Normal human fibroblasts [2]; Homo sapiens, Fibroblast
  inhibition at 10000 µM: 50%
Normal human fibroblasts [3]
  GSH (Arbitrary units): 4997.7 ± 947.2 Arbitrary units
  Increase of GSH: 44%

## NC(=O)c1cccnc1 [Nicotinamide, nicotinamide]
[4]
  Inhibition of γH2AX expression: −106%
  γH2AX, Cy5 (Intensity): 3052.8 Intensity

## O=c1c(O)c(-c2ccc(O)c(O)c2)oc2cc(O)cc(O)c12 [Quercetin]
[5]; 10 μM
  ROS (Fluorescence units): 17453.8 ± 2880.6 Fluorescence units
[5]; Homo sapiens, Keratinocyte, 10 μM
  inhibition at 10 µM: 85%

## CC1=C(/C=C/C(C)=C/C=C/C(C)=C/C(=O)O)C(C)(C)CCC1 [Retinoic acid, retinoic acid]
[6]
  Aquaporin-3 (% of positive cells): 0.323 ± 0.004 % of positive cells
  Increase of Aquaporin-3: +45%

## O=C1O[C@H]([C@@H](O)CO)C(O)=C1O [Vitamin C]
[5]; 500 μM
  ROS (Fluorescence units): 7165.2 ± 586.2 Fluorescence units
[5]; Homo sapiens, Keratinocyte, 500 μM
  inhibition at 500 µM: 102%

## C[C@@H]1C[C@H]2[C@@H]3CCC4=CC(=O)C=C[C@]4(C)[C@@]3(F)[C@@H](O)C[C@]2(C)[C@@]1(O)C(=O)CO [dexamethasone]
Reconstructed epidermis; 10 μM
  Interleukine-1 alpha: 334 ± 41 pg/mL
Reconstructed epidermis; Homo sapiens, read-out: Inhibition of IL1α release
  inhibition at 10 µM: 48%
[7]; 0.1 μM
  IL8: 4194.4 ± 814.1 pg/mL
[7]; Homo sapiens, Keratinocyte, read-out: Inhibition of IL8 production
  inhibition at 0.1 µM: 40%

## TGFB1: TGFβ1 at 5 ng/ml, the positive assay reference
[8]
  Collagen I gene expression (Relative quantity): 10.86 ± 4.17
  Dermatopontin gene expression (Relative quantity): 43.17 ± 5.97
  Elastin gene expression (Relative quantity): 67.5 ± 20.55
  MMP1 gene expression (Relative quantity): 0.33 ± 0.13
[8]; vs control cells
  Collagen I gene expression (% of induction): +786%
  Dermatopontin gene expression (% of induction): +5001%
  Elastin gene expression (% of induction): +8148%
  MMP1 gene expression (% of induction): −65%

## vitamin E
[9]
  Inhibition of lipid peroxidation: 93%
  Peroxidized lipids (Arbitrary units): 4485.3 ± 43.3 Arbitrary units
Normal human fibroblasts [10]
  Inhibition of lipid peroxidation: 71%
  Peroxidized lipids (Arbitrary units): 11413.4 ± 69.4 Arbitrary units

Source: patent US20240091294A1, “Extract of Top Growth of Holy Basil, and Cosmetic or Dermatological Compositions Containing Same” (Laboratoires Expanscience, priority 2021, published 2024)
